In publication PMC7934981, “n-Propyl 6-amino-2,6-dideoxy-2,2-difluoro-β-D-glucopyranoside is a good inhibitor for the β-galactosidase from E. coli” (Medicinal Chemistry Research, 2021):
Where two headings read alike, the source gives them in different places.

Tests used:
[1] = target: T1, β-galactosidase from E. coli (Escherichia coli, UniProt P00722); experiment: Glycosidase inhibition, p-nitrophenolate assay; assay type: biochemical; conditions: mean of triplicate experiments
T1 construct: purchased
T1 sequence (P00722 2-1024 limits assumed): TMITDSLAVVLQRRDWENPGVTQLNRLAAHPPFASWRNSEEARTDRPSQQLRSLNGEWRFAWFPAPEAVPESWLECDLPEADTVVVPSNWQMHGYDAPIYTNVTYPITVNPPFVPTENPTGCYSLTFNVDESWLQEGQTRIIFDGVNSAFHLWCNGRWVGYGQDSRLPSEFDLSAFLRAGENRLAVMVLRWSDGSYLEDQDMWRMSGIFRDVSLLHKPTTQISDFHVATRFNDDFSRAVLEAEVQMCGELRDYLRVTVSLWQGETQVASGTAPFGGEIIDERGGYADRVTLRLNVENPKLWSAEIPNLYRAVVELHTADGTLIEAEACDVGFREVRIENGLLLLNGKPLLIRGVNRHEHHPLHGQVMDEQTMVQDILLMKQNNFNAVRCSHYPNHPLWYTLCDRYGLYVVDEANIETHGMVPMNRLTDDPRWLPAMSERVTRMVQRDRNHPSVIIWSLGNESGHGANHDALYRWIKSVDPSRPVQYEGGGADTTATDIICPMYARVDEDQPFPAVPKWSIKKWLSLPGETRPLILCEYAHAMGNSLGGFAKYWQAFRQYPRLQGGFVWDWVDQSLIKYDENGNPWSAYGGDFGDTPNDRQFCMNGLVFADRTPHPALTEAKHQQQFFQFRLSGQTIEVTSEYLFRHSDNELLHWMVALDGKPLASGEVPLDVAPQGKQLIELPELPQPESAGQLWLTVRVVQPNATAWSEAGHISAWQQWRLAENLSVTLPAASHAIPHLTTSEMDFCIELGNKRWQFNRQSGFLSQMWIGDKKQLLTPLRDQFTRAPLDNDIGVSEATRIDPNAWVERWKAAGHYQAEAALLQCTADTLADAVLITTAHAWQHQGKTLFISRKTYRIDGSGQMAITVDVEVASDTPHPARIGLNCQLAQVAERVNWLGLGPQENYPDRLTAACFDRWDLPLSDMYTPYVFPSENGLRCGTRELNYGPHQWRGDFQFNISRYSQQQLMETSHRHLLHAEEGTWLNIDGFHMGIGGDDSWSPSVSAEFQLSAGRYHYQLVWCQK
Method: (§1) An in vitro evaluation of these compounds to act as an enzyme inhibitor using a panel of commercially available glycosidases was performed (Table 1) using p-nitrophenolate assays.
(§2) The corresponding p-nitrophenyl glycoside and the inhibitors were dissolved in NaOAc buffer (0.05 M, pH = 6.0) reaching final concentrations of 1.0, 1.11, 1.25, 1.43, 1.67, 2.0, 2.5, 3.33, 5.0, and 10 mM. Further dilutions (if necessary) were made in the ratios 1:60, 1:50, 1:40, 1:30, 1:20, 1:10, and 1:5. The ice-cooled solution of the enzymes was contained between 4.0 and 4.5 U/mL. The kinetic assays were performed in 96-well microtiter plates. The following solutions were pipetted per well: p-nitrophenyl glycoside (100 μL), enzyme (50 μL), inhibitor (100 μL), and standard (p-nitrophenol, 5 μL). Immediately after addition, UV/Vis absorption was measured at 42 °C and λ = 415 nm for 20 min with a single measurement interval of 50 s.

[2] = target: T2, α-glucosidase from Baker’s yeast (Saccharomyces cerevisiae, UniProt P53341); experiment: Glycosidase inhibition, p-nitrophenolate assay; assay type: biochemical
T2 construct: purchased
T2 sequence (P53341 whole entry): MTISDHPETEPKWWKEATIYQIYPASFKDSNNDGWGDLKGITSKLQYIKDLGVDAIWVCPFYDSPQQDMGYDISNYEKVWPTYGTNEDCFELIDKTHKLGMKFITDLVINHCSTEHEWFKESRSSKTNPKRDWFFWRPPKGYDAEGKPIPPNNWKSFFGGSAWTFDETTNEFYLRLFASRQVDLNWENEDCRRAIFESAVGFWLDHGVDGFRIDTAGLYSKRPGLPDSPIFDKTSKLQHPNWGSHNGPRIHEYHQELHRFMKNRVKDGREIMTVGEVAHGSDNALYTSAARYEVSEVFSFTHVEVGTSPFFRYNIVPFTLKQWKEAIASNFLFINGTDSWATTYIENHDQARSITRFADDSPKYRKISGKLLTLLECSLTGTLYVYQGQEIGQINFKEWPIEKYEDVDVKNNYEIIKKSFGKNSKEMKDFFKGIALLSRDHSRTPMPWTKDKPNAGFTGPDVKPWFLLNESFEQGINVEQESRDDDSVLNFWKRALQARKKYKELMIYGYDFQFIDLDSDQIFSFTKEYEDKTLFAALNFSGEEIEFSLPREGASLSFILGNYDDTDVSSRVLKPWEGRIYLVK
Method: as §1, §2

[3] = target: T3, α-galactosidase from green coffee beans (Coffea arabica, UniProt Q42656); experiment: Glycosidase inhibition, p-nitrophenolate assay; assay type: biochemical; conditions: mean of triplicate experiments
T3 construct: purchased
T3 sequence (Q42656 16-378): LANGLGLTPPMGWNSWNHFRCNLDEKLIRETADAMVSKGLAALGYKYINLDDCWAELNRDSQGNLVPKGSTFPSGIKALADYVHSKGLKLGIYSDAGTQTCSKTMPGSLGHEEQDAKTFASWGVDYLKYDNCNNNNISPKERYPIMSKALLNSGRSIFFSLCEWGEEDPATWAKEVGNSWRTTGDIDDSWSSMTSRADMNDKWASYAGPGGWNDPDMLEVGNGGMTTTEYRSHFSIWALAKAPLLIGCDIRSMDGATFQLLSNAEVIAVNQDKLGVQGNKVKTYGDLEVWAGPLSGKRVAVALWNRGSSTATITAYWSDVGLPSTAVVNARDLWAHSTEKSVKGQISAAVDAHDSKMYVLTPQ
Method: as §1, §2

[4] = target: β-glucosidase from almonds; experiment: Glycosidase inhibition, p-nitrophenolate assay; assay type: biochemical; conditions: mean of triplicate experiments, n.a. = no activity
Method: as §1, §2

[5] = test system: panel of commercially available glycosidases; experiment: Glycosidase panel, type of inhibition and selectivity (p-nitrophenolate assays); assay type: biochemical; conditions: panel of five glycosidases
Method: as §1, §2

[6] = Cytotoxicity, sulforhodamine B (SRB) assay, nonmalignant cells; assay type: cell-based, mouse; conditions: NIH 3T3 fibroblasts (nonmalignant); for IC50 at 3 days: nonmalignant NIH 3T3 mouse fibroblasts, no significant cytotoxicity; for EC50 at 3 days: mouse, as restated in the conclusion, NIH 3T3, read-out: EC50, cytotoxicity (SRB assays)
Method: (§3) Low or absent cytotoxicity is a mandatory requirement for subsequent therapeutic use of the compounds as glycosidase inhibitors. Therefore, their cytotoxicity was determined.
(§4) The cell lines were obtained from Department of oncology (Martin-Luther-University Halle-Wittenberg). Cultures were maintained as monolayers in RPMI 1640 medium with L-glutamine (Capricorn Scientific GmbH, Ebsdorfergrund, Germany) supplemented with 10% heat inactivated fetal bovine serum (Sigma-Aldrich Chemie GmbH, Steinheim, Germany) and penicillin/streptomycin (1%, Capricorn Scientific GmbH, Ebsdorfergrund, Germany) at 37 °C in a humidified atmosphere with 5% CO2.
(§5) The cytotoxicity of the compounds was evaluated using the SRB (Kiton-Red S, ABCR) micro culture colorimetric assay using […] cells in 96-well plates with the seeding of the cells on day 0 applying appropriate cell densities to prevent confluence of the cells during the period of the experiment. On day 1, the cells were treated with six different concentrations (1, 3, 7, 12, 20, and 30 μM); thereby, the final concentration of DMSO was always < 0.5%, generally regarded as nontoxic to the cells. On day 4, the supernatant medium was discarded; the cells were fixed with 10% trichloroacetic acid. After another day at 4 °C, the cells were washed in a strip washer and dyed with the SRB solution (100 μL, 0.4% in 1% acetic acid) for about 20 min to be followed by washing of the plates (four times, 1% acetic acid) and air-drying overnight. Furthermore, tris base solution (200 μL, 10 mM) was added to each well and absorbance was measured at λ = 570 nm employing a reader (96-wells, Tecan Spectra, Crailsheim, Germany).

[7] = Cytotoxicity, sulforhodamine B (SRB) assay, cancer cell panel; assay type: cell-based, human; conditions: for EC50 at 3 days: as restated in the conclusion, human cancer cell lines, read-out: EC50, cytotoxicity (SRB assays); for IC50 at 3 days: panel of 15 human cancer cell lines, no significant cytotoxicity
Method: as §3, §4, §5

[8] = p-nitrophenolate assay, mean of triplicate experiments, read-out: Ki, α-glucosidase from Baker’s yeast

SMILES: OCCN1C[C@H](O)[C@@H](O)[C@H](O)[C@H]1CO [Miglitol, reference compound]
- Ki [1]: 0.16 ± 0.06 µM
- Ki [2]: 9.92 ± 0.14 µM
- Ki [3]: 13.9 ± 0.15 µM
- Ki [4]: 0.21 ± 0.05 µM

SMILES: CCCO[C@@H]1O[C@H](CN)[C@@H](O)[C@H](O)C1(F)F [compound 8, n-Propyl 6-amino-2,6-dideoxy-2,2-difluoro-β-D-glucopyranoside]
- selectivity among the glycosidases [5]: nonselective inhibitor
- Ki [1]: 0.5 ± 0.09 µM
- Ki [2, 8]: 1.83 ± 0.16 µM
- Ki [3]: 3.81 ± 0.57 µM
- Ki [4]: 1.76 ± 0.13 µM
- IC50 at 3 days [6]: > 50 µM
- EC50 at 3 days [6]: > 50 µM
- EC50 at 3 days [7]: > 50 µM
- IC50 at 3 days [7]: > 50 µM

SMILES: CCCO[C@@H]1O[C@H](CN)[C@@H](O)C(F)(F)[C@H]1O [compound 16, n-Propyl 6-amino-3,6-dideoxy-3,3-difluoro-β-D-ribo-hexopyranoside]
- Ki [1]: 2.16 ± 0.93 µM
- Ki [2, 8]: 4.13 ± 0.26 µM
- Ki [3]: 4.3 ± 0.24 µM
- IC50 at 3 days [6]: > 50 µM
- EC50 at 3 days [6]: > 50 µM
- EC50 at 3 days [7]: > 50 µM
- IC50 at 3 days [7]: > 50 µM
